Test results: patent publication US9616065B2, “Compositions useful in treating brain-related diseases or disorders and methods using same” (priority 2013, dated 2017)
“Also recorded” adds a separate entry of the source. Where two headings read alike, the source gives them in different places.

Assays:
NET [1] = biological target: T1, NET (Homo sapiens, UniProt P23975); test: hNET uptake assay with transporter modulators; assay type: cell-based
T1 construct: expressed in transfected cells

NET [2] = biological target: T1, NET; test: NET interaction with amphetamine in presence of modulator; assay type: cell-based
Procedure: (§1) Mutants are functionally tested in transfected COS-7 cells. Based on the success of the approach that identified the A1 site, the critical residues identified elsewhere herein are tested for changes in uptake kinetics and amphetamine-mediated efflux. Following this initial screen, residues displaying altered activity are tested further in uptake inhibition and ligand displacement assays. For uptake, cells are washed with PBSCM (phosphate-buffered saline with 1 mM MgCl, 0.1 mM CaCl2, 100 μM ascorbic acid, 10 μM clorgyline, 100 μM pargyline, and 10 μM RO 41-0960). To initiate uptake, cells are incubated for 10 min at 25° C. with various concentrations of radiolabeled monoamine. Following uptake, cells are washed and radioactivity is counted using liquid scintillation counting. […] Apparent Km and Vmax are determined using nonlinear regression analysis. The interaction of WT and mutant MAT with psychostimulants and transporter inhibitors is assessed using uptake inhibition assays. Cells are transfected as described elsewhere herein, but before uptake is initiated the cells are preincubated with various concentrations of ligand for 10 min. Uptake is initiated and performed as described elsewhere herein.

SERT = biological target: T2, SERT (Homo sapiens, UniProt P31645); test: [3H]-serotonin uptake after preincubation with modulator; assay type: cell-based
T2 construct: The templates were full-length and nontagged human SERT in pcdna3.1; expressed in transfected cells; host or cells: COS-7, HEK293 or MDCK (uptake); COS-7 (efflux)
Procedure: (§2) COS-7, HEK293, and MDCK cells were maintained in Dulbecco modified Eagle medium (3.5 g/l glucose) supplemented with FBS (10% each) at 37° C. with 5% CO2. Uptake experiments were performed 2 days after transfecting DNAs (hSERT, human dopamine transporter [hDAT], chimeras or mutants, or empty vector for background) with TransIT-LT1 (Minis Bio LLC, Madison, Wis., USA) transfection reagent and plating the cells in 24- or 96-well plates.
(§3) The uptake was allowed to continue for 10 min at room temperature and was terminated by washing with PBS-CM. […] Vmax and KM are given as mean±S.D. of three independent experiments. […] EC50 values are given as mean±S.E.M. of at least five independent experiments. Statistical significance between vehicle and drug treatments was assessed using Student t-test or one-way analysis of variance (ANOVA) Dunnett's multiple-comparison test (p<0.05).

SmSERT = SmSERT (Schistosoma mansoni, UniProt Q3I1M7); test: Transport inhibition constants, SmSERT; assay type: cell-based
SmDAT = SmDAT (Schistosoma mansoni, UniProt E9LD23); test: Transport inhibition constants, SmDAT; assay type: cell-based
mSERT mutant YETQ-L563V [3] = test: Serotonin uptake kinetics, mSERT mutant YETQ-L563V; assay type: cell-based, mouse; settings: read-out: apparent affinity (Km)
hDAT N93A mutant = biological target: T3, hDAT N93A mutant (Homo sapiens, UniProt Q01959, N93A); test: Amphetamine-induced efflux with modulator, hDAT N93A mutant; assay type: cell-based; settings: low concentrations of amphetamine
T3 construct: expressed in transfected cells; host or cells: COS-7
T3 sequence (Q01959 1-620 N93A): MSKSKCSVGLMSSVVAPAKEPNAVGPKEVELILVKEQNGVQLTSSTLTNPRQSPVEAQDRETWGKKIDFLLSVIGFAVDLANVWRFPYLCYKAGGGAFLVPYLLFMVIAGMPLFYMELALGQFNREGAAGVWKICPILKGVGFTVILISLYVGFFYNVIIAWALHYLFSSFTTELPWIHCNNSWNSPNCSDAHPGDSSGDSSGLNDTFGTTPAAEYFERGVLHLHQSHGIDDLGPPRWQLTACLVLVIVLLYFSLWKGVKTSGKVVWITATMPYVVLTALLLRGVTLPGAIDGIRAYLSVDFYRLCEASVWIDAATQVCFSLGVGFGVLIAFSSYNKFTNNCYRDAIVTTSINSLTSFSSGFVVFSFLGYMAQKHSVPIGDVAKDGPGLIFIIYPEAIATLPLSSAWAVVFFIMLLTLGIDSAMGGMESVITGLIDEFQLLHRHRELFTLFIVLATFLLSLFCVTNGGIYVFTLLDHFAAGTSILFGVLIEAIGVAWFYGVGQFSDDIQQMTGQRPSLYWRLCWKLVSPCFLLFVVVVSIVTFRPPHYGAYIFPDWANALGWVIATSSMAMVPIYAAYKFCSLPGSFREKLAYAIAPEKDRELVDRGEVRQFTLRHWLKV
Procedure: (§4) Efflux is terminated by collecting the supernatant. Both cells and supernatant are counted by liquid scintillation counting. Efflux is calculated as ratio of supernatant over supernatant and cells.

hDAT = biological target: T4, hDAT (Homo sapiens, UniProt Q01959); test: [3H]-dopamine uptake after preincubation with modulator; assay type: cell-based
T4 construct: expressed in transfected cells; host or cells: COS-7, HEK293 or MDCK
Procedure: as §2, §3

hDAT L89C mutant (L89A) = test: Dopamine uptake inhibition assay, hDAT L89 mutant; assay type: cell-based, human
Procedure: as §1

WT hDAT = biological target: T5, WT hDAT (Homo sapiens, UniProt Q01959); test: Amphetamine-induced efflux with modulator, hDAT WT; assay type: cell-based; settings: 5 nM amphetamine
T5 construct: expressed in transfected cells; host or cells: COS-7, HEK293 or MDCK
Procedure: as §4

wild-type human SERT = wild-type human SERT (Homo sapiens, UniProt P31645); test: Amphetamine-elicited efflux, wild-type human SERT; assay type: cell-based; parameters: The templates were full-length and nontagged human SERT in pcdna3.1; expressed in transfected cells; host or cells: COS-7, HEK293 or MDCK (uptake); COS-7 (efflux); settings: 1 μM amphetamine
Procedure: (§5) COS-7 cells were maintained under the same conditions as above. Efflux experiments were performed 2 days after cell transfection with hSERT or empty vector and plating of the cells in 24-well plates. Cells were washed with room temperature PBS-CM and then loaded with 50 nM [^3H]-serotonin for 1 h. After preloading, cells were washed twice with buffer and then incubated for 10 min with or without substrates at room temperature. After incubation, the supernatant was collected, liquid scintillation fluid added, and the samples counted (Beckman LS-6500 Multi-purpose Scintillation Counter; Beckman Coulter, Brea, Calif.). The cells were solubilized in a solution of 0.1% sodium dodecyl sulfate and 0.1 M NaOH; liquid scintillation fluid was added and tubes were counted as above. All assays were done in quadruplicate.
(§6) The percentage of [^3H]-serotonin efflux among different treatments was calculated by adding counts of supernatant plus cell lysis, with the supernatant counts then divided by the total and multiplied by 100 to yield the percentage of efflux.
(§7) To investigate the role of central domains formed by TMD1 and 6 within SERT, chimeras were produced between the human and parasite SERT and TMD1 and 2 or 6 and 7, respectively, were replaced in the human SERT with their parasite counterparts. […]

[4] = biological target: T6, human SERT amino acid 112 mutant (N112C) (Homo sapiens, UniProt P31645, N112C); test: Amphetamine-elicited efflux, human SERT amino acid 112 mutant; assay type: cell-based; settings: 1 μM amphetamine
T6 construct: The templates were full-length and nontagged human SERT in pcdna3.1; expressed in transfected cells; host or cells: COS-7
Procedure: as §5, §6, §7

[5] = biological target: T7, human SERT amino acid 328 mutant (D328C) (Homo sapiens, UniProt P31645, D328C); test: Amphetamine-elicited efflux, human SERT amino acid 328 mutant; assay type: cell-based; settings: 1 μM amphetamine
T7 construct: The templates were full-length and nontagged human SERT in pcdna3.1; expressed in transfected cells; host or cells: COS-7
Procedure: as §5, §6, §7

mSERT mutant YETQ-L563V [6] = test: Substrate-elicited efflux, mSERT mutant YETQ-L563V; assay type: cell-based, mouse; settings: up to highest testable concentration
Procedure: as §4

[7] = substrate: NCCc1c[nH]c2ccc(O)cc12; test: cells, lysate or membranes; settings: other: WT mSERT
[8] = read-out: Ki transport inhibition SmDAT

Chain of SmSERT (Q3I1M7 entry or part of it): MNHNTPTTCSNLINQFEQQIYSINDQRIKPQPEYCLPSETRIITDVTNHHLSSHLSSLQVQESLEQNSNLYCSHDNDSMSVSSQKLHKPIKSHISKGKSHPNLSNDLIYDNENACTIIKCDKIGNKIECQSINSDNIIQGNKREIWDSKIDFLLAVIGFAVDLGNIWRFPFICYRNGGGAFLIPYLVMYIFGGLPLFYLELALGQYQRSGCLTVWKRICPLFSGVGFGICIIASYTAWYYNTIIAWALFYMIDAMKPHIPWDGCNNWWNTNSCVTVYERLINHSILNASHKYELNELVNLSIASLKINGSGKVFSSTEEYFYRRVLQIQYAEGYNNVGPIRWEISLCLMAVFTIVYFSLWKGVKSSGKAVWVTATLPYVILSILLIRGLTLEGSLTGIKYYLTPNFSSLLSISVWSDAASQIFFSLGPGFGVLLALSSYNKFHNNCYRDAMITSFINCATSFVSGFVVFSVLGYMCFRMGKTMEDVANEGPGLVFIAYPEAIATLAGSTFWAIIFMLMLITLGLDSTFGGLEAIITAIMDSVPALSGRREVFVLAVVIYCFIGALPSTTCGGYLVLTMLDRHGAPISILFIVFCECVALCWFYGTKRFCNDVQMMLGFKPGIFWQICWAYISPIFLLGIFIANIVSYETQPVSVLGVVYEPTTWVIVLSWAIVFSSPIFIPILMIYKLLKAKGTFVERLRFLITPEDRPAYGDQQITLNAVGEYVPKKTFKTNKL
Chain of SmDAT (E9LD23 1-727): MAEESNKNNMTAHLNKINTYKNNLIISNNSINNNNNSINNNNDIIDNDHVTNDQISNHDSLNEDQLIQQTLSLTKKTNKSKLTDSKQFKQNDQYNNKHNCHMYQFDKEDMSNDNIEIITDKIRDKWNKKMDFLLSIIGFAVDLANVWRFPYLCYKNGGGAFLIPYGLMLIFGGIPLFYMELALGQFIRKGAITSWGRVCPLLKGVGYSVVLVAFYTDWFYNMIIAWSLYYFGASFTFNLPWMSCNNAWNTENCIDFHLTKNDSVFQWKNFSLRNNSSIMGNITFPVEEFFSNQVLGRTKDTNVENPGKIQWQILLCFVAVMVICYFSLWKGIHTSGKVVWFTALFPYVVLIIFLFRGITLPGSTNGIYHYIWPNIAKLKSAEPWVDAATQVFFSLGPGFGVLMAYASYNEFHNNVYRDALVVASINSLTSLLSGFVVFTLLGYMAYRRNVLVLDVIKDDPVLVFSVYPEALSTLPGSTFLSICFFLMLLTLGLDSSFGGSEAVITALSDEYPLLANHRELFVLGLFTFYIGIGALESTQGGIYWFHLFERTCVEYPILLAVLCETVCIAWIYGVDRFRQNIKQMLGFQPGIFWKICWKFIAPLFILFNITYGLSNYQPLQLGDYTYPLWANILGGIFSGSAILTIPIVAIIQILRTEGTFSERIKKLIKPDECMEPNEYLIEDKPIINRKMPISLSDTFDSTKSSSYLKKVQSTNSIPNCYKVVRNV
T4 sequence (Q01959 whole entry): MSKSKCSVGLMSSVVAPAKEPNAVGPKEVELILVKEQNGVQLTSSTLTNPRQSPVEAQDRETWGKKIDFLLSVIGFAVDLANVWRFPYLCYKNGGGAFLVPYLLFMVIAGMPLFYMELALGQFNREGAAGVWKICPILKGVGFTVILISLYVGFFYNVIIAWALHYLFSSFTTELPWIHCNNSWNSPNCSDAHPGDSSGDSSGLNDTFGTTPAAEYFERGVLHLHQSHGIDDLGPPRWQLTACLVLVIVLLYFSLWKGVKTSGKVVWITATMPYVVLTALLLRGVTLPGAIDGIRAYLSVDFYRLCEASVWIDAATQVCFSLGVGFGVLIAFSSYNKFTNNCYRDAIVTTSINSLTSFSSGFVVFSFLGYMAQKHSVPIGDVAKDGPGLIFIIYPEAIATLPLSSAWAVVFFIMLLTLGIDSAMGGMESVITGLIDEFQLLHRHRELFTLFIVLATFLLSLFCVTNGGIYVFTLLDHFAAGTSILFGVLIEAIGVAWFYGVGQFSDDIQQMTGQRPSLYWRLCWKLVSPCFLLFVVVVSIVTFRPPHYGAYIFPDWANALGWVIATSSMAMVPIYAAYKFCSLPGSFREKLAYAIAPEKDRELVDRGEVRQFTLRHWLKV
T5 sequence (Q01959 whole entry): as above
T1 sequence (P23975 whole entry): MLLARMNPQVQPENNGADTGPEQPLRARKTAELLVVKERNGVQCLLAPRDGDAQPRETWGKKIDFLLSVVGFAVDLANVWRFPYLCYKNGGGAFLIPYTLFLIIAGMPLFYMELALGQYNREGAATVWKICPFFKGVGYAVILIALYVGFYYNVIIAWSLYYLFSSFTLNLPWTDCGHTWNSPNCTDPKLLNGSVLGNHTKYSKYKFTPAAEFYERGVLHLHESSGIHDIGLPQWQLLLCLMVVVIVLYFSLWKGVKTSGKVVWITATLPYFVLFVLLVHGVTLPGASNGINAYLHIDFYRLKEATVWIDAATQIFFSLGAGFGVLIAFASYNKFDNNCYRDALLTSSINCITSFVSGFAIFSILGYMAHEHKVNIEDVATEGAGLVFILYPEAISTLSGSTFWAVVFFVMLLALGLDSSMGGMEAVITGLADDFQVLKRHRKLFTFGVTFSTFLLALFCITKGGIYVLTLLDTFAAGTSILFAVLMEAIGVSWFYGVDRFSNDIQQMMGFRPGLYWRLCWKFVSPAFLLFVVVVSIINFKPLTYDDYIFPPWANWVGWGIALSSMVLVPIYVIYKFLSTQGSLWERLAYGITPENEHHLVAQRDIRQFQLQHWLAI

COc1cccc(NC(=O)Cn2c(SCC(=O)Nc3ccc(F)cc3)nnc2-c2ccncc2)c1 [KM-409, N-(4-fluorophenyl)-2-((4-(2-((3-methoxyphenyl)amino)-2-oxoethyl)-5-(pyridin-4-yl)-4H-1,2,4-triazol-3-yl)thio)acetamide]
activity towards NET (NET [1]): displayed activity towards NET

COc1cc(C(C(=O)NCCC(C)C)N(CCCO)C(=O)c2snc(C(N)=O)c2N)ccc1O (centres unmarked) [ATM2, 4-amino-N^5-{1-(4-hydroxy-3-methoxyphenyl)-2-[(3-methylbutyl)amino]-2-oxoethyl}-N^5-(3-hydroxypropyl)-1,2-thiazole-3,5-dicarboxamide]
effect on affinity of amphetamine for NET (NET [2]): affinity for amphetamine was enhanced | effect on SERT uptake activity / specificity (SERT): higher activity towards SERT | shape of concentration response on transporter uptake (SERT): biphasic mode of action, enhancing transporter activity at low concentrations and inhibiting transporter function at higher concentrations

COC(=O)[C@H]1[C@@H](OC(=O)c2ccccc2)C[C@@H]2CC[C@H]1N2C [Cocaine]
Ki (SmSERT): 35.4 ± 7.6 µM | Ki (SmDAT; [8]): 29.4 ± 3.6 µM

CC(NC(C)(C)C)C(=O)c1cccc(Cl)c1 (centres unmarked) [Bupropion]
Ki (SmDAT; [8]): 242 ± 36 µM

CN(C)CCCC1(c2ccc(F)cc2)OCc2cc(C#N)ccc21 (centres unmarked) [Citalopram]
Ki (SmDAT; [8]): 50.5 ± 4.7 µM

CN(C)CCCN1c2ccccc2CCc2ccccc21 [Imipramine]
Ki (SmSERT): 0.3 ± 0.1 µM

NCCc1c[nH]c2ccc(O)cc12 [serotonin]
Km (mSERT mutant YETQ-L563V [3]): 4.7 ± 1.3 µM

CCc1ccc2[nH]c3nc(SCCNS(=O)(=O)c4ccc(NC(C)=O)cc4)nnc3c2c1 [ATM5]
effect on amphetamine-elicited efflux (hDAT N93A mutant): blocking amphetamine-elicited efflux; also recorded: blocked | effect on DAT uptake activity / specificity (hDAT): higher activity towards hDAT than hSERT | shape of concentration response on hDAT uptake (hDAT): biphasic activity enhancing hDAT activity at low concentrations and inhibiting hDAT function at higher concentrations | effect on DAT uptake activity / specificity (hDAT; listed as KM-822): specific for DAT | affinity of mutant for ATM5 versus WT (hDAT L89C mutant (L89A)): increased affinity for ATM5 | effect on amphetamine-mediated efflux (WT hDAT): potentiated amphetamine-mediated efflux; also recorded: potentiated amphetamine mediated efflux

CC(N)Cc1ccccc1 (centres unmarked) [Amphetamine]
amphetamine-elicited efflux (wild-type human SERT): substantial efflux | amphetamine-elicited efflux [4]: no significant amphetamine-elicited efflux | Ki (SmSERT): 393 ± 26 µM | Ki (SmDAT): 10 ± 0.5 µM | amphetamine-elicited efflux [5]: no significant amphetamine-elicited efflux | reversal of transport (efflux) (mSERT mutant YETQ-L563V [6]): did not elicit any significant reversal of transport

B1: WT mSERT (Mus musculus) (protein)
chain: METTPLNSQKVLSECKDKEDCQENGVLQKGVPTPADKAGPGQISNGYSAVPSTSAGDEAPHSTPAATTTLVAEIHQGERETWGKKMDFLLSVIGYAVDLGNIWRFPYICYQNGGGAFLLPYTIMAIFGGIPLFYMELALGQYHRNGCISIWKKICPIFKGIGYAICIIAFYIASYYNTIIAWALYYLISSFTDQLPWTSCKNSWNTGNCTNYFAQDNITWTLHSTSPAEEFYLRHVLQIHQSKGLQDLGTISWQLALCIMLIFTIIYFSIWKGVKTSGKVVWVTATFPYIVLSVLLVRGATLPGAWRGVVFYLKPNWQKLLETGVWVDAAAQIFFSLGPGFGVLLAFASYNKFNNNCYQDALVTSVVNCMTSFVSGFVIFTVLGYMAEMRNEDVSEVAKDAGPSLLFITYAEAIANMPASTFFAIIFFLMLITLGLDSTFAGLEGVITAVLDEFPHIWAKRREWFVLIVVITCILGSLLTLTSGGAYVVTLLEEYATGPAVLTVALIEAVVVSWFYGITQFCSDVKEMLGFSPGWFWRICWVAISPLFLLFIICSFLMSPPQLRLFQYNYPHWSIILGYCIGTSSVICIPIYIIYRLISTPGTLKERIIKSITPETPTEIPCGDIRMNAV
Km [7]: 3.4 ± 0.7 µM
